Measurements taken from US20230101903A1, “COMPOUNDS USEFUL AS ANTI-VIRAL AGENTS” (NATURE CRETE PHARMACEUTICALS PC, priority 2020, published 2023).
Values after ≈ are worked out from the molar mass of the structure shown. Where two headings read alike, the source gives them in different places.

Key:
[1] = tested on: SARS-CoV-2 (isolate 30-287); assay: microbe, parasite or virus in culture; type: cell-based; conditions: Severe acute respiratory syndrome coronavirus 2, Vero C1008, VERO E6 cells, 96 hours, read-out: IC50, synthesis of new viral RNA
[2] = tested on: influenza virus A/FM/1/47/H1N1; assay: Real-Time PCR of newly synthesized viral RNA (M1 genome copies) in infected MDCK-II cells; type: cell-based, human Influenza A/FM/1/47/H1N1 strain; conditions: 12 hours
Experimental: (§1) All assays in Examples 1, 2, 4 and 5 were performed with the human Influenza A/FM/1/47/H1N1 strain, and canine MDCK-II cells, whilst in Example 7 VERO E6 monkey kidney cells were used.
MDCK-II cells were plated in 12-well plates. After overnight incubation, the cells were washed with phosphate-buffer saline (PBS) and infected with influenza virus A/FM/1/47/H1N1) for 2 hours at 37° C.
The inoculum was then removed and the cells were incubated with MEM containing various concentrations of Compound A for 12 hours.

Influenza A/FM/1/47/H1N1 [3] = assay: virus titer of supernatants of infected MDCK-II cells (plaque titration); type: cell-based, human Influenza A/FM/1/47/H1N1 strain
Experimental: as §1
MDCK-II cells in Minimal Essential Medium (MEM) were seeded into a 6-well plate and incubated at 37° C. The following day, the cells were infected with influenza A/FM/1/47/H1N1 and incubated at 37° C. for 2 hours, followed by washing extensively with serum free MEM.
The infected cells were then cultured in media supplemented with varying concentrations of Compound A at 37° C. for 24 to 48 hours. Supernatants of the infected cells, containing the newly synthesised virions, were harvested and titrated in MDCK-II cells. Upon plaque formation, the infected cells were washed with phosphate-buffered saline (PBS) and fixed with paraformaldehyde. Cell monolayers were stained with crystal violet and observed microscopically.

[4] = tested on: influenza virus A/FM/1/47; assay: intracellular viral nucleoprotein (NP) by Western Blot Analysis in infected cells; type: cell-based, human Influenza A/FM/1/47/H1N1 strain; conditions: p-cymene 200 ng/mL; 7, 10 and 24 hours after infection
Experimental: as §1
Intracellular viral nucleoprotein (NP) concentration was quantified by Western Blot Analysis at 7, 10 and 24 hours after infection.
A six-well culture plate was seeded with cells, which were then incubated at 37° C. for 24 hours under 5% CO2. The cells were infected with influenza virus A/FM/1/47 at 37° C. for 1 hour and then p-cymene was added (200 ng/mL). The cells were harvested at the indicated time periods (7h, 10h and 24h). The lysates were incubated for 20 min on ice and then centrifuged at 14,000×g for 10 min at 4° C. The supernatants were collected and equal amounts of proteins were resolved by sodium dodecyl sulfate (10%) polyacrylamide gel electrophoresis.

Influenza A/FM/1/47/H1N1 [5] = assay: plaque-reduction assay in MDCK-II cells; type: cell-based, human Influenza A/FM/1/47/H1N1 strain; conditions: 72 hours, all concentrations above 200 ng/mL
Experimental: as §1
The antiviral activity of p-cymene in Influenza A/FM/1/47/H1N1 was assayed in a plaque-reduction assay (expressed in forming plaques).
Canine MDCK-II cells were seeded into 6-well plastic plates and cultured at 37° C. under 5% CO2 for 24 hours. The MDCK-II cells were then inoculated with Influenza A/FM/1/47/H1N1 for 2 hours, after which the infected cells were washed and cultured for 72 hours at 37° C. under 5% CO2 in the presence of different concentrations of p-cymene in Minimum Essential Medium (MEM). Ribavirin was used as a control at a concentration of 25 μM.
After incubation, the virus-infected cells were observed microscopically. After 3 days of infection, cells were fixed with paraformaldehyde and cell monolayers were stained with crystal violet.

[6] = pre-incubation (2 hours before infection)

| SMILES | IC50 ([1]; co-incubation) [µg/mL] | IC50 [1, 6] [µg/mL] | synthesis of new viral RNA ([2]; all concentrations tested) | viral M1 genome copy numbers ([2]; nuclear RNA) | virus titer (Influenza A/FM/1/47/H1N1 [3]; MDCK-II cells, 24 and 48 hpi, varying concentrations) | anti-viral action (conclusion of the in vitro studies) (Influenza A/FM/1/47/H1N1 [3]; compared with ribavirin) | amount of intracellular viral nucleoprotein (NP) [4] | plaque formation (number of forming plaques) (Influenza A/FM/1/47/H1N1 [5]) |
| --- | --- | --- | --- | --- | --- | --- | --- | --- |
| CCCOCC(CC)c1ccc(C)cc1 (stereo not shown) [Compound A] | 38 | 9 (≈ 43.6 µM) | inhibits | decreased | significantly decreased virus titer | significant anti-viral action, comparable with that of ribavirin | – | – |
| Cc1ccc(C(C)C)cc1 [p-cymene] | 83 | 59 (≈ 440 µM) | – | – | – | – | significantly decreased | significant, dose-dependent decrease of plaque formation |
